Laboratory results from PMC3608532, “Characterization of a Single-Chain Variable Fragment Recognizing a Linear Epitope of Aβ: A Biotechnical Tool for Studies on Alzheimer’s Disease?” (PLoS ONE, 2013).

Assays:
Aβ(1-42) monomers = experiment: ELISA binding to Aβ(1-42) monomers; design: species or system human; details: 250 ng/well
Procedure: 1 mg of Aβ(1-42) or N-terminally/C-terminally biotinylated Aβ(1-42) was dissolved in 1 ml 1,1,1,3,3,3-hexafluorosiopropanol (HFIP) and incubated overnight at room temperature. Afterwards, Aβ(1-42) was mixed in the favored ratio with N-terminally/C-terminally biotinylated Aβ(1-42) and aliquoted. HFIP was evaporated using a SpeedVac (Concentrator 5301, Eppendorf, Germany) at room temperature for 30 min. To evaporate remaining HFIP, the sample was incubated overnight at room temperature with an open lid.
The preparation of Aβ(1-42) monomers and oligomers was carried out by size exclusion chromatography (SEC) as already described by Johansson et al with minor modifications. 250 µg of Aβ peptide was dissolved in 130 µl SEC buffer (50 mM NaPi, pH 7.4; 150 mM NaCl; 0.6% Tween-20) and briefly centrifuged (1 min, 16 100×g, room temperature) to remove insoluble fibrillar material. 100 µl of the supernatant was applied on a Superdex75 10/300 column (GE Healthcare, UK) connected to an Äkta purifier system (GE Healthcare, UK). The sample was eluted at a flow rate of 0.6 ml per min at room temperature and detected at wavelengths of 214, 250 and 278 nm. […] The concentration of the Aβ preparations was determined using the Micro BCA Protein Assay Kit (Thermo Scientific, Waltham, MA, USA). […] The samples were measured at a wavelength of 570 nm with a Polarstar Optima plate reader (BMG, Ortenberg, Germany). […]

Aβ(1-42) = experiment: Thioflavin T (ThT) assay of Aβ(1-42) fibrilization; assay type: biochemical, human; details: for fibrilization of Aβ(1-42), ThT fluorescence: PBS, room temperature, value after 10 h, n = 5
Procedure: 7.5 µM Aβ(1-42) (stock solution of 190 µM in DMSO, freshly prepared before usage) were incubated with 10 µM ThT in PBS in absence or presence of different concentrations of scFv-IC16 (1.5, 3.75 and 7.5 µM) at room temperature for 24 h. In addition, scFv-IC16 (7.5 µM) without Aβ(1-42) was tested under the same conditions as the negative control. For all samples a reference value, generated with PBS and ThT only, was subtracted. […] The plate was covered by an adhesive film preventing evaporation of the sample buffer. Fluorescence recordings were performed every 30 min for 22 h (excitation wavelength 440 nm, emission wavelength 490 nm, Polarstar Optima, BMG, Ortenberg, Germany). The experiments were performed five-fold, and the average of the obtained values as well as the standard deviation was calculated.

Aβ(1-8) = experiment: SPR binding kinetics to immobilized Aβ(1-8)
Procedure: (§1) Binding kinetics were determined by SPR using a Biacore™ X (GE Healthcare, UK). Synthetic Aβ peptides were dissolved in 10 mM NaAc, pH 4.0. The CM5 sensor chip surface (GE Healthcare, UK) was activated using N-ethyl-N′-3 […] carbodiimide (EDC) and N-hydroxysuccinimide (NHS) chemistry followed by 2-(2-pyridinyldithio)ethaneamine hydrochloride (PDEA), in order to introduce a reactive thiol group. Aβ was coupled via the C-terminal cysteine to the chip at a flow rate of 5 µl/min, and the remaining active groups were blocked by injecting cysteine. The immobilization procedure was performed according to manufacturer’s recommendation. All kinetic analyses were performed at a flow rate of 20 µl/min in PBS. Varying concentrations of scFv-IC16 (10 to 5000 nM) and IC16 (10 to 1000 nM) were injected. […] When required, the surface was regenerated by injecting 20 µl 50 mM glycine, pH 11.0. The data evaluation was performed using Biaevaluation Software 4.1.1. ScFv-IC16 data were fitted according to the Langmuir 1∶1 binding model, whereas IC16 data were fitted according to the bivalent binding model. Standard errors of equilibrium dissociation constants (KD) were calculated using standard errors of the corresponding association and dissociation rate constants.

Aβ(pE3-8) = experiment: SPR binding kinetics to immobilized Aβ(pE3-8); details: SPR; two N-terminal residues truncated, E3 modified into pyroE3
Procedure: as §1

ELISA binding to Aβ monomers, C-terminal biotin tag (Aβ(1-42) monomers; 100% C-terminally biotinylated monomers, p = 0.038 versus N-bio oligomers): very similar to Aβ oligomers
ELISA binding to Aβ monomers, N-terminal biotin tag (Aβ(1-42) monomers; 100% N-terminally biotinylated monomers on streptavidin plate): not detected
k on (Aβ(1-8); SPR Biacore X, Aβ peptide coupled via C-terminal cysteine to CM5 chip, PBS, 25°C, 20 µl/min, global fit, scFv-IC16 Langmuir 1:1 model, IC16 bivalent model, ± standard error, SEM): 3.10±0.02×10^4 M^-1 s^-1
Kd (Aβ(1-8); SPR Biacore X, CM5 chip, PBS, 25°C, global fit, scFv-IC16 Langmuir 1:1 model, IC16 bivalent model, standard error from kon and koff errors, SEM): 553 nM
k off (Aβ(1-8); SPR Biacore X, CM5 chip, PBS, 25°C, global fit, scFv-IC16 Langmuir 1:1 model, IC16 bivalent model, ± standard error, SEM): 1.72±0.005×10^−2 s^-1
Kd (Aβ(1-8); SPR, Langmuir 1:1 binding model): 550 nM
binding to Aβ(pE3-8) (Aβ(pE3-8)): no binding could be detected
Substance: scFv-IC16: single-chain variable fragment (VH-(Gly4Ser)3-VL, His6- and Myc-tag) derived from Aβ binding monoclonal antibody IC16, expressed in E. coli
ThT fluorescence of scFv-IC16 only (Aβ(1-42); 7.5 µM scFv-IC16 without Aβ(1-42), negative control, after 10 h): did not show ThT fluorescence
fibrilization of Aβ(1-42), ThT fluorescence (Aβ(1-42); ratio 1:1: 7.5 µM Aβ(1-42) with 7.5 µM scFv-IC16, 10 µM ThT): completely inhibited
fibrilization of Aβ(1-42), ThT fluorescence (Aβ(1-42); ratio 2:1: 7.5 µM Aβ(1-42) with 3.75 µM scFv-IC16, 10 µM ThT): reduced the ThT fluorescence significantly
fibrilization of Aβ(1-42), ThT fluorescence (Aβ(1-42); ratio 5:1: 7.5 µM Aβ(1-42) with 1.5 µM scFv-IC16, 10 µM ThT): reduced the ThT fluorescence significantly
